These compounds were tested on primary human lung fibroblasts and primary rodent HSCs (assay: High content imaging assay (α-SMA staining, cell morphology) of fibroblast to myofibroblast transdifferentiation, confirmed by Western blot and RT-PCR). Conditions: Homo sapiens, Fibroblast; imaging and western based activity.
Excerpt: High content imaging assays have been established, using primary human lung fibroblasts and primary rodent HSCs, that enable the identification of small molecules that either inhibit myofibroblast formation/activation or induce the reversion of activated myofibroblasts to a quiescent fibroblast state. Conditions, involving serum starvation and subsequent TGF-β treatment, have been identified that facilitate robust in vitro transdifferentiation in a miniaturized (384 well plate) format that is amenable to high throughput small molecule screening. The inhibition assay is based on α-SMA immunofluorescent staining and cell morphology changes associated with fibroblast to myofibroblast transdifferentiation, Using the selective ALK-5 TGF-β1 receptor inhibitor ([…]) as a positive control, the inhibition assay has been used to initiate a screen of a collection of ˜100,000 small molecules that consists of bioactive small molecules and a diversity set that has been assembled based on 2D and 3D structural diversity and inherent “drug-likeness” properties. Preliminary screening led to the identification of multiple previously identified anti-fibrotic molecules.
A high content imaging assay, based on α-SMA staining and cell morphological changes associated with fibroblast to myofibroblast transdifferentiation, was established using primary human lung fibroblasts and primary rodent HSCs. Conditions, involving serum starvation and subsequent TGF-β treatment, were identified that facilitate robust in vitro transdifferentiation in a miniaturized (384 well plate) format that is amenable to high throughput small molecule screening. A selective ALK-5 TGF-β1 receptor inhibitor (SB-431542) was used as a positive control. […] This assay was used to evaluate compounds of Formula (I), (Ia), (II), (IIa), (III), (IIIa), (IV), (IVa), (IVb), (V), (Va), (VI), (VIa), (VIb), (VIc), (VII), (VIIa), (VIII), (VIIIa), (IX), (IXa), (X), or (Xa) generated from medicinal chemistry efforts.
The activity of Itraconazole and compounds of Formula (I), (Ia), (II), (IIa), (III), (IIIa), (IV), (IVa), (IVb), (V), (Va), (VI), (VIa), (VIb), (VIc), (VII), (VIIa), (VIII), (VIIIa), (IX), (IXa), (X), or (Xa) was confirmed by analyzing changes in gene expression of multiple genes associated with fibroblast to myofibroblast transdifferentiation using biochemical methods (i.e., Western blot and RT-PCR). These 4-day assays were used to evaluate sets of 6 compounds at a time in 4-point dose response fashion.
The EC50 for (imaging and western based) activity is graded as: +++=<500 nM; ++=500 nM to 5 μM; +=5 to 30 μM); −=>30 μM; NT=Not Tested.
`CC(C)N1CCN(c2ccc(N3CCN(c4ccc(OC[C@H]5OC[C@](Cn6nccn6)(c6ccc(F)cc6F)O5)cc4)CC3)cc2)C1=O` (racemic) [Compound 203, cis (±)-1-(4-(4-(4-((4-((2H-1,2,3-triazol-2-yl)methyl)-4-(2,4-difluorophenyl)-1,3-dioxolan-2-yl)methoxy)phenyl)piperazin-1-yl)phenyl)-3-isopropylimidazolidin-2-one] was tested, and the EC50 was > 30 µM. With `CCC(C)n1ncn(-c2ccc(N3CCN(c4ccc(OC[C@@H]5CO[C@@](Cn6cccn6)(c6ccccc6C(N)=O)O5)cc4)CC3)cc2)c1=O` (some centres unmarked) [Compound 101] the EC50 was 5 to 30 µM. With `CCC(CC)n1ncn(-c2ccc(N3CCN(c4ccc(OC[C@@H]5CO[C@@](Cn6nccn6)(c6ccc(Cl)cc6Cl)O5)cc4F)CC3)cc2)c1=O` [Compound 164] the EC50 was < 0.5 µM. Work on `CCC(C)n1ncn(-c2ccc(N3CCN(c4ccc(OC[C@@H]5CO[C@](Cc6ccnnc6)(c6cccc(OC)c6)O5)cc4)CC3)cc2)c1=O` (some centres unmarked) [Compound 108] yielded an EC50 of 0.5 to 5 µM. Compound `CC(=O)C(C)n1cnn(-c2ccc(N3CCN(c4ccc(OC[C@@H]5CO[C@@](Cn6nccn6)(c6ccc(Cl)cc6Cl)O5)cc4)CC3)cc2)c1=O` (some centres unmarked) [Compound 10] has an EC50 of 0.5 to 5 µM. Compound `CCC(C)n1cnn(-c2ccc(N3CCN(c4ccc(OC[C@@H]5CO[C@@](Cc6ccnnc6)(c6ccccc6)O5)cc4)CC3)cc2)c1=O` (mixture of isomers) [Compound 102] has an EC50 of 0.5 to 5 µM. `CC[C@H](C)n1ncn(-c2ccc(N3CCN(c4ccc(OC[C@@H]5CO[C@@](Cn6cccn6)(c6ccc(C#N)cc6C)O5)cc4)CC3)cc2)c1=O` [Compound 172] showed an EC50 of 0.5 to 5 µM. With `CCC(C)n1ncn(-c2ccc(N3CCN(c4ccc(OC[C@@H]5CO[C@@](Cn6nccn6)(c6ccc(CN)cc6)O5)cc4)CC3)cc2)c1=O` (some centres unmarked) [Compound 37] the EC50 was 0.5 to 5 µM. With `CCC(C)n1ncn(-c2ccc(N3CCN(c4ccc(OC[C@@H]5CO[C@@](Cn6nccn6)(c6ccc(Cl)cc6Cl)O5)cc4)CC3)cc2)c1=S` (some centres unmarked) [Compound 75] the EC50 was > 30 µM. `CC(CCN)n1ncn(-c2ccc(N3CCN(c4ccc(OC[C@@H]5CO[C@@](Cn6nccn6)(c6ccccc6)O5)cc4)CC3)cc2)c1=O` (some centres unmarked) [Compound 17] showed an EC50 of 5 to 30 µM. Compound `CCC(C)n1ncn(-c2ccc(N3CCN(c4ccc(OC[C@@H]5CO[C@@](Cn6nccn6)(c6cc(C#N)ccc6Cl)O5)cc4)CC3)cc2)c1=O` (some centres unmarked) [Compound 27] has an EC50 of 5 to 30 µM. For `CCC(C)n1ncn(-c2ccc(N3CCN(c4ccc(OC[C@@H]5CO[C@@](Cn6nccn6)(c6ccc(C#N)cc6C)O5)cc4)CC3)cc2)c1=O` (some centres unmarked) [Compound 24], the EC50 was 0.5 to 5 µM. `CCC(C)n1ncn(-c2ccc(N3CCN(c4ccc(OC[C@@H]5CO[C@@](Cn6ncc7ccccc76)(c6ccc(Cl)cc6Cl)O5)cc4)CC3)cc2)c1=O` (some centres unmarked) [Compound 49] was tested, and the EC50 was 0.5 to 5 µM. `CCC(C)n1ncn(-c2ccc(N3CCN(c4ccc(OC[C@@H]5CO[C@@](Cn6cccn6)(c6ccc(Cl)cc6)O5)cc4)CC3)cc2)c1=O` (some centres unmarked) [Compound 81] was tested, and the EC50 was < 0.5 µM. Work on `CCC(C)n1ncn(-c2ccc(N3CCN(c4ccc(OC[C@@H]5CO[C@@](Cc6ccnnc6)(c6cccc(OC)c6)O5)cc4)CC3)cc2)c1=O` (some centres unmarked) [Compound 128] yielded an EC50 of 0.5 to 5 µM. Compound `CCC(C)n1ncn(-c2ccc(N3CCN(c4ccc(OC[C@@H]5CO[C@@](Cn6ncc(Cl)c(Cl)c6=O)(c6ccc(Cl)cc6Cl)O5)cc4)CC3)cc2)c1=O` (some centres unmarked) [Compound 42] has an EC50 of 5 to 30 µM. For `CCC(C)n1ncn(-c2ccc(N3CCN(c4ccc(OCCO[C@@H](Cn5nccn5)c5ccccc5)cc4)CC3)cc2)c1=O` (some centres unmarked) [Compound 141], the EC50 was > 30 µM. For `CCC(C)n1ncn(-c2ccc(N3CCN(c4ccc(OC[C@@H]5CO[C@@](Cn6cccn6)(c6ccc(OC(F)(F)F)cc6)O5)cc4)CC3)cc2)c1=O` (some centres unmarked) [Compound 94], the EC50 was < 0.5 µM. For `CCC(C)n1ncn(-c2ccc(N3CCN(c4ccc(OC[C@@H]5CO[C@@](Cn6nccn6)(c6ccc(Cl)cc6Cl)O5)c(C#N)c4)CC3)cc2)c1=O` (some centres unmarked) [Compound 57], the EC50 was < 0.5 µM. `CC[C@@H](C)n1ncn(-c2ccc(N3CCN(c4ccc(OC[C@H]5CO[C@](Cn6cccn6)(c6ccc(C#N)cc6C)O5)cc4)CC3)cc2)c1=O` [Compound 175] showed an EC50 of 5 to 30 µM.
